According to ChEMBL document CHEMBL4138234, “Aegeline inspired synthesis of novel amino alcohol and thiazolidinedione hybrids with antiadipogenic activity in 3T3-L1 cells” (Eur J Med Chem, 2018):
The source made the active and inactive calls. The rule behind the calls is not given here.

What was measured:
[1] = test system: 3T3-L1; assay: Cytotoxicity against mouse 3T3L1 cells; assay type: cell-based
[2] = test system: 3T3-L1; assay: Anti-adipogenic activity in mouse 3T3L1 preadipocytes assessed as reduction in lipid accumulation at 20 uM by Oil Red O absorbance assay; assay type: functional, cell-based
[3] = test system: 3T3-L1; assay: Anti-adipogenic activity in mouse 3T3L1 cells assessed as reduction in lipid accumulation at 20 uM incubated for 2 to 6 days by Oil Red O staining based microscopic method; assay type: functional, cell-based
[4] = molecular target: T1, Peroxisome proliferator-activated receptor gamma (Mus musculus) (UniProt P37238); assay: Inhibition of PPARgamma mRNA levels in mouse 3T3L1 preadipocytes at 20 uM after 6 days by RT-PCR analysis; assay type: cell-based
T1 sequence (whole entry): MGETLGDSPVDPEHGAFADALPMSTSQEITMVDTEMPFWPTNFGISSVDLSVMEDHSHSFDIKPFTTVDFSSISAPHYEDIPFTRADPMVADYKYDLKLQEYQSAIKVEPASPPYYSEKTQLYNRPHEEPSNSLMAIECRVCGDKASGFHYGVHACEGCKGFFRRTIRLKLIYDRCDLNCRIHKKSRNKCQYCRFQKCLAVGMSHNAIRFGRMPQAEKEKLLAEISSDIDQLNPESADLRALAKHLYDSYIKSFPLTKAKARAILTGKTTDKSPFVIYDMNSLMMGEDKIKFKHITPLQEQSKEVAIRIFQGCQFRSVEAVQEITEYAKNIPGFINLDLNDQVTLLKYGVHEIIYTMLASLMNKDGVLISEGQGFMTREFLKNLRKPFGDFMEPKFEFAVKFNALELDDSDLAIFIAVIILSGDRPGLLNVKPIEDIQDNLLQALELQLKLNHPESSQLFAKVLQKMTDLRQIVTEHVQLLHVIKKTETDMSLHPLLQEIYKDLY

[5] = test system: 3T3-L1; assay: Cell cycle arrest in mouse 3T3L1 cells assessed as accumulation at S phase at 20 uM after 24 hrs by propidium iodide-staining based flow cytometry (reference value: 22%); assay type: functional
[6] = test system: 3T3-L1; assay: Anti-adipogenic activity in mouse 3T3L1 preadipocytes in differentiation medium assessed as reduction in lipid accumulation at 20 uM by Oil Red O absorbance assay relative to control; assay type: functional; parameters: scale not given: the % may be the effect or the level left
[7] = test system: 3T3-L1; assay: Anti-adipogenic activity in mouse 3T3L1 preadipocytes in differentiation media assessed as reduction in lipid accumulation by Oil Red O staining microscopic method; assay type: functional, cell-based
[8] = species on record: Mus musculus; assay: Inhibition of PPARgamma/CEBPalpha-mediated increase in FAS mRNA levels in mouse 3T3L1 preadipocytes at 20 uM after 6 days by RT-PCR analysis; assay type: cell-based
[9] = test system: 3T3-L1; assay: Anti-adipogenic activity in mouse 3T3L1 cells assessed as reduction in lipid accumulation at 20 uM incubated for 2 to 4 days by Oil Red O absorbance method; assay type: functional, cell-based
[10] = test system: 3T3-L1; assay: Anti-adipogenic activity in mouse 3T3L1 cells assessed as reduction in lipid accumulation at 20 uM incubated up to 6 days by Oil Red O absorbance assay; assay type: functional, cell-based
[11] = test system: 3T3-L1; assay: Anti-adipogenic activity in mouse 3T3L1 cells assessed as reduction in lipid accumulation at 20 uM incubated for 4 to 6 days by Oil Red O absorbance method; assay type: functional, cell-based
[12] = molecular target: T1, Peroxisome proliferator-activated receptor gamma (Mus musculus); assay: Inhibition of PPARgamma protein expression in mouse 3T3L1 preadipocytes at 20 uM up to 6 days by Western blot analysis; assay type: cell-based
[13] = test system: 3T3-L1; assay: Anti-adipogenic activity in mouse 3T3L1 cells assessed as reduction in lipid accumulation at 20 uM incubated for 2 to 4 days by Oil Red O staining based microscopic method; assay type: functional, cell-based
[14] = species on record: Mus musculus; assay: Inhibition of PPARgamma/CEBPalpha-mediated increase in FAS protein expression in mouse 3T3L1 preadipocytes at 20 uM up to 6 days by Western blot analysis; assay type: cell-based
[15] = species on record: Mus musculus; assay: Inhibition of PPARgamma/CEBPalpha-mediated increase in aP2 protein expression in mouse 3T3L1 preadipocytes at 20 uM up to 6 days by Western blot analysis; assay type: cell-based
[16] = species on record: Mus musculus; assay: Inhibition of PPARgamma/CEBPalpha-mediated increase in aP2 mRNA levels in mouse 3T3L1 preadipocytes at 20 uM after 6 days by RT-PCR analysis; assay type: cell-based
[17] = test system: 3T3-L1; assay: Anti-adipogenic activity in mouse 3T3L1 cells assessed as reduction in lipid accumulation at 20 uM incubated up to 6 days by Oil Red O staining based microscopic method; assay type: functional, cell-based
[18] = test system: 3T3-L1; assay: Anti-adipogenic activity in mouse 3T3L1 preadipocytes assessed as reduction in MDI induced-lipid accumulation at 10 uM after 20 mins by Oil Red O staining-based assay; assay type: functional, cell-based
[19] = test system: 3T3-L1; assay: Anti-adipogenic activity in mouse 3T3L1 cells assessed as reduction in lipid accumulation at 20 uM incubated for 4 to 6 days by Oil Red O staining based microscopic method; assay type: functional, cell-based
[20] = test system: 3T3-L1; assay: Cell cycle arrest in mouse 3T3L1 cells assessed as accumulation at S phase at 10 uM after 24 hrs by propidium iodide-staining based flow cytometry (reference value: 22%); assay type: functional
[21] = test system: 3T3-L1; assay: Anti-adipogenic activity in mouse 3T3L1 cells assessed as reduction in lipid accumulation at 20 uM incubated for 2 to 6 days by Oil Red O absorbance method; assay type: functional, cell-based
[22] = molecular target: CCAAT/enhancer-binding protein alpha (Mus musculus) (UniProt P53566); assay: Inhibition of C/EBPalpha mRNA levels in mouse 3T3L1 preadipocytes at 20 uM after 6 days by RT-PCR analysis; assay type: cell-based
[23] = test system: 3T3-L1; assay: Cell cycle arrest in mouse 3T3L1 cells assessed as accumulation at S phase at 10 to 20 uM after 16 hrs by propidium iodide-staining based flow cytometry; assay type: functional
[24] = molecular target: CCAAT/enhancer-binding protein alpha (Mus musculus) (UniProt P53566); assay: Inhibition of C/EBPalpha protein expression in mouse 3T3L1 preadipocytes at 20 uM up to 6 days by Western blot analysis; assay type: cell-based

CCAAT/enhancer-binding protein alpha (Mus musculus), sequence (P53566 whole entry): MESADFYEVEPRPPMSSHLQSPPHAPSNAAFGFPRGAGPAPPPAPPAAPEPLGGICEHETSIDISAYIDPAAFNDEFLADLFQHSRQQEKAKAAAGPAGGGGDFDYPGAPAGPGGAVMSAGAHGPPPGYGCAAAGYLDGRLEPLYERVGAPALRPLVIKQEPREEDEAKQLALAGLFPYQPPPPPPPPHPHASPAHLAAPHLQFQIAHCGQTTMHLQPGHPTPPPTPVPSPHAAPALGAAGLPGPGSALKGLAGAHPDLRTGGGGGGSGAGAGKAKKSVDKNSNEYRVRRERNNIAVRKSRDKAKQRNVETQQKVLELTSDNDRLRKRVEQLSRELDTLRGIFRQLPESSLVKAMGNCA

CC(NCC(O)COc1ccc(/C=C2\SC(=O)N(Cc3ccccc3)C2=O)cc1)c1ccccc1 (centres undefined)
Activity [1]: Toxic

O=C1S/C(=C\c2ccc(OCC(O)CNCc3ccccn3)cc2)C(=O)N1Cc1ccc(F)cc1 (centres undefined)
Activity [1]: Toxic

O=C1S/C(=C\c2ccc(OCC(O)CNCc3cccnc3)cc2)C(=O)N1Cc1ccccc1 (centres undefined)
Activity [2]: inactive

O=C(Cc1ccc(Cl)cc1)OCC(O)COc1ccc(/C=C2\SC(=O)NC2=O)cc1 (centres undefined)
Activity [2]: inactive

O=C1S/C(=C\c2ccc(OCC(O)CNCc3cccnc3)cc2)C(=O)N1Cc1ccc(F)cc1 (centres undefined)
Activity [2]: inactive

O=C1NC(=O)/C(=C/c2ccc(OCC(O)COC(=O)c3cccnc3)cc2)S1 (centres undefined)
Activity [2]: inactive

O=C1NC(=O)/C(=C/c2ccc(OCC(O)COC(=O)c3ccc(Cl)nc3)cc2)S1 (centres undefined)
Activity [2]: inactive

O=C1S/C(=C\c2ccc(OCC(O)CNCc3cccnc3)cc2)C(=O)N1Cc1ccccc1Br (centres undefined)
Activity [2]: inactive

O=C1S/C(=C\c2ccc(OCC(O)CNCc3ccccn3)cc2)C(=O)N1Cc1ccccc1 (centres undefined)
Activity [2]: Active | Activity [3]: Active | inhibition [4]: Active | Activity [5]: 36% | Activity [6]: >50% | Activity [7]: Dose-dependent effect | inhibition [8]: Active | Activity [9]: Active | Activity [10]: Active | Activity [11]: Active | inhibition [12]: Active | Activity [13]: Active | inhibition [14]: Active | inhibition [15]: Active | inhibition [16]: Active | Activity [17]: Active | Activity [18]: Active | Activity [19]: Active | Activity [20]: 37% | Activity [21]: Active | inhibition [22]: Active | Activity [23]: inactive | inhibition [24]: Active

COc1ccc(C(=O)OCC(O)COc2ccc(/C=C3\SC(=O)NC3=O)cc2)c(OC)c1 (centres undefined)
Activity [2]: inactive

CC(NCC(O)COc1ccc(/C=C2\SC(=O)N(Cc3ccccc3Br)C2=O)cc1)c1ccccc1 (centres undefined)
Activity [1]: Toxic

O=C1S/C(=C\c2ccc(OCC(O)CNCc3ccccn3)cc2)C(=O)N1Cc1ccccc1Br (centres undefined)
Activity [2]: Active
